Biological target: T1, human mGlu5a receptor (Homo sapiens, UniProt P41594)
T1 construct: expressed in transfected cells
Experiment: Intracellular Ca2+ mobilization assay (mGlu5 PAM)
Format: cell-based
Conditions: for Emax: HEK293, maximal response in % of the maximal stimulatory effect obtained with saturating concentrations of L-glutamate, HEK-293 human mGlu5a cells, read-out: Eff. (%); for EC50: HEK-293 cells stably transfected with human mGlu5a receptor, L-glutamate added at EC20 (typically around 80 μM) after 10-30 min pre-incubation with test compound, read-out: EC50 (nM) mGlu5PAM
Protocol: A monoclonal HEK-293 cell line stably transfected with a cDNA encoding for the human mGlu5a receptor was generated; for the work with mGlu5 Positive Allosteric Modulators (PAMs), a cell line with low receptor expression levels and low constitutive receptor activity was selected to allow the differentiation of agonistic versus PAM activity. Cells were cultured according to standard protocols (Freshney, 2000) in Dulbecco's Modified Eagle Medium with high glucose supplemented with 1 mM glutamine, 10% (vol/vol) heat-inactivated bovine calf serum, Penicillin/Streptomycin, 50 μg/ml hygromycin and 15 μg/ml blasticidin (all cell culture reagents and antibiotics from Invitrogen, Basel, Switzerland).
About 24 hrs before an experiment, 5×10^4 cells/well were seeded in poly-D-lysine coated, black/clear-bottomed 96-well plates. The cells were loaded with 2.5 μM Fluo-4AM in loading buffer (1×HBSS, 20 mM HEPES) for 1 hr at 37° C. and washed five times with loading buffer. The cells were transferred into a Functional Drug Screening System 7000 (Hamamatsu, Paris, France), and 11 half logarithmic serial dilutions of test compound at 37° C. were added and the cells were incubated for 10-30 min with on-line recording of fluorescence. Following this pre-incubation step, the agonist L-glutamate was added to the cells at a concentration corresponding to EC20 (typically around 80 μM) with on-line recording of fluorescence; in order to account for day-to-day variations in the responsiveness of cells, the EC20 of glutamate was determined immediately ahead of each experiment by recording of a full dose-response curve of glutamate.
Responses were measured as peak increase in fluorescence minus basal (i.e. fluorescence without addition of L-glutamate), normalized to the maximal stimulatory effect obtained with saturating concentrations of L-glutamate. Graphs were plotted with the % maximal stimulatory using XLfit, a curve fitting program that iteratively plots the data using Levenburg Marquardt algorithm. The single site competition analysis equation used was y=A+((B−A)/(1+((x/C)D))), where y is the % maximal stimulatory effect, A is the minimum y, B is the maximum y, C is the EC50, x is the log 10 of the concentration of the competing compound and D is the slope of the curve (the Hill Coefficient). From these curves the EC50 (concentration at which half maximal stimulation was achieved), the Hill coefficient as well as the maximal response in % of the maximal stimulatory effect obtained with saturating concentrations of L-glutamate were calculated.
A depression of the signal observed after addition of the EC20 concentration of L-glutamate was indicative of an inhibitory activity of the test compound.

T1 sequence (P41594 21-1180 isoform P41594-2 limits assumed): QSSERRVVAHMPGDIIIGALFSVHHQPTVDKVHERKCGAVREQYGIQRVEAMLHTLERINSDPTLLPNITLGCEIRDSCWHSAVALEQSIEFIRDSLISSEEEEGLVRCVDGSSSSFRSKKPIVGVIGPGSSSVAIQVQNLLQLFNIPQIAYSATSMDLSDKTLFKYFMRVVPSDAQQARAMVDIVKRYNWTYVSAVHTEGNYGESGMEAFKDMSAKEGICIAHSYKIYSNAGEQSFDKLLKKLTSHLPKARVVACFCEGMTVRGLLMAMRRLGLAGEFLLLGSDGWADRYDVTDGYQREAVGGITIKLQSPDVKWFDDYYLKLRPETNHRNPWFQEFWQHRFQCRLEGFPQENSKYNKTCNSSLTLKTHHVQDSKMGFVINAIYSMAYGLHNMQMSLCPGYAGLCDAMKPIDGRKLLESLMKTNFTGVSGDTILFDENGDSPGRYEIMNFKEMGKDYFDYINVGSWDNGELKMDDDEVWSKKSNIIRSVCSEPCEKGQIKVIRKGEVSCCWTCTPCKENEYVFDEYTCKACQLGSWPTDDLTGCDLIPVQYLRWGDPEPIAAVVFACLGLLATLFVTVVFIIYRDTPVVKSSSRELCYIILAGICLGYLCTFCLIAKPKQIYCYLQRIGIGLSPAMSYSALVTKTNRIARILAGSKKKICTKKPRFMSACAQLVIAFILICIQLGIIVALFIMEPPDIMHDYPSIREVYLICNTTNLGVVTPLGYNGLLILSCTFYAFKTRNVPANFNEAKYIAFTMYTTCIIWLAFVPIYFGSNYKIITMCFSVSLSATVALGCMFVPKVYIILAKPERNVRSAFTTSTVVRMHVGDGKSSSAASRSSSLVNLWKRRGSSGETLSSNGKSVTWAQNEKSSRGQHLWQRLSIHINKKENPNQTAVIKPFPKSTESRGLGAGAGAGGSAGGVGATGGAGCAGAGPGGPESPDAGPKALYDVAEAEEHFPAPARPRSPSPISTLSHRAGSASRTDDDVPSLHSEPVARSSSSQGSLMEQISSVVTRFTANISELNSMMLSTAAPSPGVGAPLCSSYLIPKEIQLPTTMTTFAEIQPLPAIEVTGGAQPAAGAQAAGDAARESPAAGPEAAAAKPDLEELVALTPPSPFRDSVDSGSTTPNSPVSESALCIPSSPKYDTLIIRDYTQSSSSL

`CN(C(=O)c1ncc(C#Cc2ccc(F)cc2)cn1)C(C)(C)C` [Example 11, 5-(4-Fluoro-phenylethynyl)-pyrimidine-2-carboxylic Acid tert-butyl-methyl-amide] was tested, and the Emax was 69% and the EC50 was 34 nM.
With `CN(C(=O)c1ncc(C#Cc2cccc(F)c2)cn1)C(C)(C)C` [Example 12, 5-(3-Fluoro-phenylethynyl)-pyrimidine-2-carboxylic Acid tert-butyl-methyl-amide] the Emax was 55% and the EC50 was 23 nM.
`Cc1cccc(C#Cc2cnc(C(=O)NC(C)(C)C)nc2)c1` [Example 13, 5-m-Tolylethynyl-pyrimidine-2-carboxylic Acid tert-butylamide] gave an Emax of 83% and an EC50 of 71 nM.
For `CC(C)(C)NC(=O)c1ncc(C#Cc2cccc(Cl)c2)cn1` [Example 14, 5-(3-Chloro-phenylethynyl)-pyrimidine-2-carboxylic Acid tert-butylamide], the Emax was 95% and the EC50 was 111 nM.
`CN(C(=O)c1ncc(C#Cc2cc(F)ccc2F)cn1)C(C)(C)C` [Example 15, 5-(2,5-Difluoro-phenylethynyl)-pyrimidine-2-carboxylic Acid tert-butyl-methyl-amide] gave an Emax of 32% and an EC50 of 35 nM.
`CN(C(=O)c1ncc(C#Cc2cncc(Cl)c2)cn1)C(C)(C)C` [Example 16, 5-(5-Chloro-pyridin-3-ylethynyl)-pyrimidine-2-carboxylic Acid tert-butyl-methyl-amide] was tested, and the Emax was 27% and the EC50 was 58 nM.
`Cc1cc(C#Cc2cccc(F)c2)cnc1C(=O)N(C)C(C)(C)C` [Example 17, 5-(3-Fluoro-phenylethynyl)-3-methyl-pyridine-2-carboxylic Acid tert-butyl-methyl-amide] showed an Emax of 49% and an EC50 of 37 nM.
`Cc1cc(C#Cc2ccc(F)cc2)cnc1C(=O)N(C)C(C)(C)C` [Example 18, 5-(4-Fluoro-phenylethynyl)-3-methyl-pyridine-2-carboxylic Acid tert-butyl-methyl-amide] gave an Emax of 71% and an EC50 of 76 nM.
With `Cc1cc(C#Cc2cc(F)ccc2F)cnc1C(=O)N(C)C(C)(C)C` [Example 19, 5-(2,5-Difluoro-phenylethynyl)-3-methyl-pyridine-2-carboxylic Acid tert-butyl-methyl-amide] the Emax was 29% and the EC50 was 33 nM.
`Cc1cc(C#Cc2cncc(Cl)c2)cnc1C(=O)N(C)C(C)(C)C` [Example 20, 5-(5-Chloro-pyridin-3-ylethynyl)-3-methyl-pyridine-2-carboxylic Acid tert-butyl-methyl-amide] was tested, and the Emax was 26% and the EC50 was 102 nM.
`CN(C(=O)c1ncc(C#Cc2cccc(F)c2)cc1F)C(C)(C)C` [Example 21, 3-Fluoro-5-(3-fluoro-phenylethynyl)-pyridine-2-carboxylic Acid tert-butyl-methyl-amide] was tested, and the Emax was 54% and the EC50 was 18 nM.
For `CN(C(=O)c1ncc(C#Cc2ccc(F)cc2)cc1F)C(C)(C)C` [Example 22, 3-Fluoro-5-(4-fluoro-phenylethynyl)-pyridine-2-carboxylic Acid tert-butyl-methyl-amide], the Emax was 65% and the EC50 was 32 nM.
`CN(C(=O)c1ncc(C#Cc2cc(F)ccc2F)cc1F)C(C)(C)C` [Example 23, 5-(2,5-Difluoro-phenylethynyl)-3-fluoro-pyridine-2-carboxylic Acid tert-butyl-methyl-amide] was tested, and the Emax was 38% and the EC50 was 10 nM.
`CN(C(=O)c1ncc(C#Cc2cncc(Cl)c2)cc1F)C(C)(C)C` [Example 24, 5-(5-Chloro-pyridin-3-ylethynyl)-3-fluoro-pyridine-2-carboxylic Acid tert-butyl-methyl-amide] was tested, and the Emax was 29% and the EC50 was 11 nM.
`CN(C(=O)c1ccc(C#Cc2cccc(F)c2)cn1)C1CCC1` [Example 25, 5-(3-Fluoro-phenylethynyl)-pyridine-2-carboxylic Acid cyclobutyl-methyl-amide] was tested, and the Emax was 56% and the EC50 was 32 nM.
Work on `O=C(NC1COC1)c1ccc(C#Cc2cccc(F)c2)cn1` [Example 26, 5-(3-Fluoro-phenylethynyl)-pyridine-2-carboxylic Acid oxetan-3-ylamide] yielded an Emax of 80% and an EC50 of 43 nM.
In the case of `CN(C(=O)c1ccc(C#Cc2cccc(F)c2)cn1)C1(C)COC1` [Example 27, 5-(3-Fluoro-phenylethynyl)-pyridine-2-carboxylic Acid methyl-(3-methyl-oxetan-3-yl)-amide], the Emax is reported as 53% and the EC50 is reported as 24 nM.
In the case of `CN(C(=O)c1ccc(C#Cc2ccc(F)cc2)cn1)C1(C)COC1` [Example 28, 5-(4-Fluoro-phenylethynyl)-pyridine-2-carboxylic Acid methyl-(3-methyl-oxetan-3-yl)-amide], the Emax is reported as 68% and the EC50 is reported as 37 nM.
Work on `CN(C(=O)c1ccc(C#Cc2cc(F)ccc2F)cn1)C1(C)COC1` [Example 29, 5-(2,5-Difluoro-phenylethynyl)-pyridine-2-carboxylic Acid methyl-(3-methyl-oxetan-3-yl)-amide] yielded an Emax of 45% and an EC50 of 21 nM.
Work on `CN(C(=O)c1ccc(C#Cc2ccc(F)c(F)c2)cn1)C1(C)COC1` [Example 30, 5-(3,4-Difluoro-phenylethynyl)-pyridine-2-carboxylic Acid methyl-(3-methyl-oxetan-3-yl)-amide] yielded an Emax of 50% and an EC50 of 60 nM.
`CN(C(=O)c1ccc(C#Cc2cccc(F)c2)cn1)C1(C)CC1` [Example 31, 5-(3-Fluoro-phenylethynyl)-pyridine-2-carboxylic Acid methyl-(1-methyl-cyclopropyl)-amide] was tested, and the Emax was 43% and the EC50 was 17 nM.
`CN(C(=O)c1ccc(C#Cc2ccc(F)cc2)cn1)C1(C)CC1` [Example 32, 5-(4-Fluoro-phenylethynyl)-pyridine-2-carboxylic Acid methyl-(1-methyl-cyclopropyl)-amide] showed an Emax of 59% and an EC50 of 24 nM.
`CN(C(=O)c1ccc(C#Cc2cccc(Cl)c2)cn1)C1(C(F)(F)F)CC1` [Example 33, 5-(3-Chloro-phenylethynyl)-pyridine-2-carboxylic Acid methyl-(1-trifluoromethyl-cyclopropyl)-amide] was tested, and the Emax was 37% and the EC50 was 33 nM.
`Cc1cccc(C#Cc2ccc(C(=O)N(C)C3(C(F)(F)F)CC3)nc2)c1` [Example 34, 5-m-Tolylethynyl-pyridine-2-carboxylic Acid methyl-(1-trifluoromethyl-cyclopropyl)-amide] gave an Emax of 46% and an EC50 of 27 nM.
In the case of `CC1(C)CN(C(=O)c2ccc(C#Cc3cccc(F)c3)cn2)CCO1` [Example 35, (2,2-Dimethyl-morpholin-4-yl)-[5-(3-fluoro-phenylethynyl)-pyridin-2-yl]-methanone], the Emax is reported as 57% and the EC50 is reported as 46 nM.
`CC1(C)CN(C(=O)c2ccc(C#Cc3cc(F)ccc3F)cn2)CCO1` [Example 36, [5-(2,5-Difluoro-phenylethynyl)-pyridin-2-yl]-(2,2-dimethyl-morpholin-4-yl)-methanone] was tested, and the Emax was 44% and the EC50 was 56 nM.
Molecule `CC1(O)CCN(C(=O)c2ccc(C#Cc3cccc(F)c3)cn2)CC1` [Example 37, [5-(3-Fluoro-phenylethynyl)-pyridin-2-yl]-(4-hydroxy-4-methyl-piperidin-1-yl)-methanone] has an Emax of 38% and an EC50 of 79 nM.
For `CN(C(=O)c1ncc(C#Cc2cccc(F)c2)cc1F)C1(C)CC1` [Example 42, 3-Fluoro-5-(3-fluoro-phenylethynyl)-pyridine-2-carboxylic Acid methyl-(1-methyl-cyclopropyl)-amide], the Emax was 35% and the EC50 was 33 nM.
Work on `CN(C(=O)c1ncc(C#Cc2ccccc2)cc1Cl)C(C)(C)C` [Example 43, 3-Chloro-5-phenylethynyl-pyridine-2-carboxylic Acid tert-butyl-methyl-amide] yielded an Emax of 69% and an EC50 of 36 nM.
`CN(C(=O)c1ncc(C#Cc2cccc(F)c2)cn1)C1(C(F)(F)F)CC1` [Example 44, 5-(3-Fluoro-phenylethynyl)-pyrimidine-2-carboxylic Acid methyl-(1-trifluoromethyl-cyclopropyl)-amide] was tested, and the Emax was 68% and the EC50 was 42 nM.
Work on `O=C(c1ncc(C#Cc2ccccc2)cn1)N1CC(F)(F)C1` [Example 45, (3,3-Difluoro-azetidin-1-yl)-(5-phenylethynyl-pyrimidin-2-yl)-methanone] yielded an Emax of 51% and an EC50 of 62 nM.
`CC1(C)CCCN(C(=O)c2ncc(C#Cc3ccccc3)cn2)C1` [Example 46, (3,3-Dimethyl-piperidin-1-yl)-(5-phenylethynyl-pyrimidin-2-yl)-methanone] showed an Emax of 59% and an EC50 of 50 nM.
